The source of these data is ChEMBL document CHEMBL5131478, “3,5-Bis(trifluoromethyl)phenylsulfonamides, a novel pancreatic cancer active lead. Investigation of the terminal aromatic moiety” (Bioorg Med Chem Lett, 2022).

For one data set, the system named is MCF7. The experiment in a line: Growth inhibition of human MCF7 cells incubated for 72 hrs by MTT assay. In kind it is functional. (Tetrazolium dyes change colour on reduction, which living cells bring about.)
The next data set has as its system A2780. The experiment in a line: Growth inhibition of human A2780 cells incubated for 72 hrs by MTT assay. Type of data set: functional.
A further data set concerns NCI-H460. The experiment in a line: Growth inhibition of human NCI-H460 cells incubated for 72 hrs by MTT assay. In kind it is functional.
A short description of data set [1]: Growth inhibition of human SJG2 cells incubated for 72 hrs by MTT assay. Type of data set: functional. The conditions noted are these: SJ-G2.
The test system of a further data set is PANC-1. Briefly: Growth inhibition of human PANC-1 cells incubated for 72 hrs by MTT assay. Type of data set: functional.
Data set [2] can be described thus: Growth inhibition of human MCF-10A cells incubated for 72 hrs by MTT assay. Type of data set: toxicity, cell-based.
For a further data set, the system named is BXPC-3. The experiment in a line: Growth inhibition of human BXPC-3 cells incubated for 72 hrs by MTT assay. Type of data set: functional.
Another data set deals with DU-145. The experiment in a line: Growth inhibition of human DU-145 cells incubated for 72 hrs by MTT assay. In kind it is functional.
Another data set deals with A-431. The experiment in a line: Growth inhibition of human A-431 cells incubated for 72 hrs by MTT assay. Type of data set: functional.
For a further data set, the system named is HPAC. Briefly: Growth inhibition of human HPAC cells incubated for 72 hrs by MTT assay. Type of data set: functional.
A further data set has as its system ASPC1. Briefly: Growth inhibition of human ASPC1 cells incubated for 72 hrs by MTT assay. In kind it is functional.
Another data set deals with U-87 MG. Briefly: Growth inhibition of human U87 cells incubated for 72 hrs by MTT assay. In kind it is functional, U-87MG ATCC.
Another data set concerns Capan-2. Briefly: Growth inhibition of human Capan-2 cells incubated for 72 hrs by MTT assay. In kind it is functional.
Another data set has as its system HT-29. Briefly: Growth inhibition of human HT-29 cells incubated for 72 hrs by MTT assay. Type of data set: functional.
Another data set deals with BE(2)-C. Briefly: Growth inhibition of human BE2C cells incubated for 72 hrs by MTT assay. Type of data set: functional.
The subject of a further data set is MIA PaCa-2. Briefly: Growth inhibition of human MIA PaCa-2 cells incubated for 72 hrs by MTT assay. Type of data set: functional.
Another data set concerns MCF-10A. Briefly: Cytotoxicity against human MCF-10A cells assessed as inhibition of cell growth at 25 uM incubated for 72 hrs by MTT assay. In kind it is toxicity, cell-based.

A word on the GI50: it is the concentration at which growth is held to half of that of the control. High values mean lower sensitivity of the cells, low ones greater sensitivity of the cells.

`COc1ccc(CNCCCNS(=O)(=O)c2cc(C(F)(F)F)cc(C(F)(F)F)c2)cc1OC`: the GI50 with MCF7 came to 1900 nM; in the data set with A2780 it was 3800 nM; in the data set with NCI-H460, 2400 nM; in data set [1] it was 18000 nM; in the data set with PANC-1 it was 18000 nM; in the data set on BXPC-3, 13000 nM. The GI50 worked out at 4000 nM in the data set with DU-145; 7000 nM with A-431; 3500 nM in the data set on HPAC; 6400 nM with ASPC1; 3400 nM in the data set on U-87 MG; 15000 nM in the data set with Capan-2. Moreover, the values for the GI50 in the data set with HT-29, in the data set on BE(2)-C and in the data set on MIA PaCa-2 were 2700 nM, 3600 nM and 2800 nM, respectively. Halving of growth in data set [2] (GI50 at 72 h) required 5300 nM.
As to `O=S(=O)(NCCNCc1ccc(-c2ccccc2)cc1)c1cc(C(F)(F)F)cc(C(F)(F)F)c1`, the GI50 in the data set with MCF7 was 1400 nM; in the data set on A2780, 2600 nM; in the data set on NCI-H460, 2600 nM; in [1] it was 2500 nM; with PANC-1, 4200 nM; with BXPC-3 it was 1600 nM. Moreover, the GI50 in the data set with DU-145 was 2500 nM; in the data set with A-431 it was 2400 nM; with HPAC, 2800 nM; with ASPC1, 2800 nM; in the data set on U-87 MG it was 1400 nM; in the data set with Capan-2, 2400 nM. Moreover, the GI50 with HT-29, with BE(2)-C and in the data set with MIA PaCa-2 was 2700 nM each time. Halving of growth in data set [2] (GI50 at 72 h) required 3300 nM.
For the compound `O=S(=O)(NCCNCc1ccc(Br)cc1)c1cc(C(F)(F)F)cc(C(F)(F)F)c1`, in the data set with MCF-10A, the Activity entry is listed as “Non-Toxic”.
On to `COc1ccc(CNCCNS(=O)(=O)c2cc(C(F)(F)F)cc(C(F)(F)F)c2)cc1OC`, for which the GI50 was 25000 nM with MCF7; 14000 nM with A2780; 19000 nM in the data set with NCI-H460; 29000 nM in data set [1]; 34000 nM with PANC-1; 20000 nM in the data set on BXPC-3. Moreover, the GI50 with DU-145 was determined as 30000 nM; in the data set on A-431 it was 25000 nM; in the data set on HPAC, 16000 nM; with ASPC1 it was 20000 nM; with U-87 MG, 25000 nM; in the data set on Capan-2, 34000 nM. Besides, the concentration for 50% growth inhibition (GI50) in the data set on HT-29 worked out at 13000 nM; in the data set on BE(2)-C it was 23000 nM; in the data set on MIA PaCa-2, 29000 nM. The 50% growth inhibitory concentration (GI50) at 72 h in data set [2] came to 25000 nM.
Take `O=S(=O)(NCCNCc1ccc(C(F)(F)F)cc1)c1cc(C(F)(F)F)cc(C(F)(F)F)c1`: the Activity result in the data set on MCF-10A is “Non-Toxic”.
Turning to `O=S(=O)(NCCCNCc1ccc(-c2ccccc2)cc1)c1cc(C(F)(F)F)cc(C(F)(F)F)c1`, the GI50 turned out to be 1700 nM in the data set with MCF7; 2600 nM with A2780; 2500 nM with NCI-H460; 2300 nM in [1]; 2500 nM in the data set with PANC-1; 1700 nM in the data set on BXPC-3. The GI50 came to 2700 nM with DU-145; 2600 nM in the data set on A-431; 2700 nM with HPAC; 2500 nM with ASPC1; 2200 nM in the data set on U-87 MG; 2200 nM in the data set on Capan-2. Moreover, the GI50 in the data set on HT-29 was determined as 2300 nM; with BE(2)-C, 2600 nM; with MIA PaCa-2, 2400 nM. This compound also gave a GI50 at 72 h in data set [2] of 2800 nM.
Turning to `CC(C)(C)c1ccc(CNCCCNS(=O)(=O)c2cc(C(F)(F)F)cc(C(F)(F)F)c2)cc1`, the GI50 with MCF7 was 2100 nM; in the data set with A2780, 2900 nM; with NCI-H460 it was 2500 nM; in data set [1] it was 2400 nM; in the data set with PANC-1, 2500 nM; in the data set with BXPC-3 it was 1400 nM. Moreover, the GI50 with DU-145 came to 2700 nM; in the data set on A-431 it was 2800 nM; in the data set on HPAC, 2300 nM; in the data set with ASPC1 it was 2700 nM; in the data set with U-87 MG, 2300 nM; in the data set with Capan-2 it was 2100 nM. Also, the 50% growth inhibitory concentration (GI50) in the data set with HT-29 was 2000 nM; with BE(2)-C, 2500 nM; in the data set with MIA PaCa-2, 2300 nM. Besides, halving of growth in data set [2] (GI50 at 72 h) required 3200 nM.
In the case of `CC(C)(C)c1ccc(CNCCNS(=O)(=O)c2cc(C(F)(F)F)cc(C(F)(F)F)c2)cc1`, the GI50 was 13000 nM with MCF7; 14000 nM with A2780; 14000 nM in the data set on NCI-H460; 14000 nM in data set [1]; 13000 nM in the data set on PANC-1; 8800 nM in the data set on BXPC-3. In addition, the GI50 in the data set on DU-145 was 16000 nM; in the data set with A-431, 16000 nM; in the data set on HPAC, 14000 nM; in the data set with ASPC1, 14000 nM; in the data set on U-87 MG, 13000 nM; in the data set with Capan-2 it was 13000 nM. The GI50 came out at 14000 nM with HT-29, 14000 nM in the data set with BE(2)-C and 15000 nM in the data set on MIA PaCa-2. Further, the concentration for 50% growth inhibition (GI50) at 72 h in data set [2] turned out to be 14000 nM.
Take `O=S(=O)(NCCCNCc1ccc(Br)cc1)c1cc(C(F)(F)F)cc(C(F)(F)F)c1`: the GI50 in the data set with MCF7 amounted to 1900 nM; in the data set with A2780, 2600 nM; with NCI-H460 it was 2500 nM; in data set [1], 2400 nM; with PANC-1, 2200 nM; in the data set on BXPC-3, 1500 nM. For the same compound, the GI50 was found to be 2600 nM with DU-145; 2500 nM in the data set on A-431; 2900 nM in the data set with HPAC; 2800 nM in the data set with ASPC1; 2100 nM in the data set on U-87 MG; 2000 nM with Capan-2. Further, the values for the GI50 with HT-29, in the data set with BE(2)-C and in the data set on MIA PaCa-2 were 2200 nM, 2700 nM and 2300 nM, respectively. In data set [2], this compound came in with a GI50 at 72 h of 3100 nM.
